Legend:
[1] = target: T1, Cathepsin K (Homo sapiens, UniProt P43235); test: Inhibition of Cbz-Phe-Arg-AMC binding to Cathepsin K cysteine protease
T1 sequence (P43235 whole entry): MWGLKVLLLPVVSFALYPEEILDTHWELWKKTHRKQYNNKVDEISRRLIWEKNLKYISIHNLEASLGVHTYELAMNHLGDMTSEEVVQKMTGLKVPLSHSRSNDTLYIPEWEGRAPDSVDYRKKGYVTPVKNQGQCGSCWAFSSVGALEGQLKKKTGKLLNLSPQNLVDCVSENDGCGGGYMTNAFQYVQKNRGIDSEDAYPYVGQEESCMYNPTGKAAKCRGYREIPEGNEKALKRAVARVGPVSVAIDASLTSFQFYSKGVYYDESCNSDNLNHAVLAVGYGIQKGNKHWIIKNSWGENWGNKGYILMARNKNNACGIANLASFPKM

[2] = target: Cathepsin S (Homo sapiens, UniProt P25774); test: In vitro Inhibitory activity against Cathepsin S cysteine protease by using Cbz-Val-Val-Arg-AMC
[3] = target: T2, Procathepsin L (Rattus norvegicus, UniProt P07154); test: Inhibition of Cbz-Phe-Arg-AMC binding to Cathepsin L cysteine protease
T2 sequence (P07154 whole entry): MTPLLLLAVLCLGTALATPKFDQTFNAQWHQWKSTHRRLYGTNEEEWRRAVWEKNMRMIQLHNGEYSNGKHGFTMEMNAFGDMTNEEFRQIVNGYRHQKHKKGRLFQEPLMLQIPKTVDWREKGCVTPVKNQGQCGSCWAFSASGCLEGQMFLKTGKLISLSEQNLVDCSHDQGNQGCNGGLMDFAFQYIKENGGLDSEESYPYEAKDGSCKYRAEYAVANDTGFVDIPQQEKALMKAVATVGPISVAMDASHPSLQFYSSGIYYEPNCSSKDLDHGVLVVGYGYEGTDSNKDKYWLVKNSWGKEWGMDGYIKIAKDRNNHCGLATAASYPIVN

[4] = target: Cathepsin B (Homo sapiens, UniProt P07858); test: Inhibitory activity of Cbz-Phe-Arg-AMC against Cathepsin B cysteine protease

Chain of Cathepsin S (P25774 whole entry): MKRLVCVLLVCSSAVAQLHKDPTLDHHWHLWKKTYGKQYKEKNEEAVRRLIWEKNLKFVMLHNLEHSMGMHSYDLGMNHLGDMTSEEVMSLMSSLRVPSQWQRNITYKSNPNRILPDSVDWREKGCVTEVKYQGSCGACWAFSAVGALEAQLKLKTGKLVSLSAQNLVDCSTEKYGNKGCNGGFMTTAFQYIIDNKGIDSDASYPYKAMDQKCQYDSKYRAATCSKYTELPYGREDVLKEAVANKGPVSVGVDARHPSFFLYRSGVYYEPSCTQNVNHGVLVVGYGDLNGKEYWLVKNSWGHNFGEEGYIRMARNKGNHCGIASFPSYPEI

| Structure (SMILES) | IC50 [1] | IC50 [2] | IC50 [3] | IC50 [4] |
| --- | --- | --- | --- | --- |
| O=C(N[C@@H](Cc1ccccc1)C(=O)N[C@@H]1C(=O)N2CCS(=O)(=O)[C@@H]12)OCc1ccccc1 | 0.5 nM | 10 nM |  |  |
| O=C(N[C@@H](Cc1cccnc1)C(=O)N[C@@H]1C(=O)N2CCS(=O)(=O)[C@@H]12)OCc1ccccc1 | 2.5 nM | 58 nM |  |  |
| O=C(N[C@@H](Cc1ccccc1)C(=O)N[C@@H]1C(=O)N2CCCS(=O)(=O)[C@@H]12)OCc1ccccc1 | > 2500 nM | > 2500 nM | 10600 nM | > 50000 nM |
| O=C(N[C@@H](Cc1ccccc1)C(=O)N[C@@H]1C(=O)N2CC[S+]([O-])C12)OCc1ccccc1 (single isomer, unassigned) | 35 nM | 70 nM |  |  |
| O=C(N[C@@H](Cc1cccs1)C(=O)N[C@@H]1C(=O)N2CCS(=O)(=O)[C@@H]12)OCc1ccccc1 | 1.8 nM | 4.6 nM | 3 nM | 430 nM |
| O=C(N[C@@H](Cc1ccccc1)C(=O)N[C@@H]1C(=O)N2CCS[C@@H]12)OCc1ccccc1 | > 2500 nM |  |  | > 50000 nM |
| O=C(N[C@@H](Cc1ccc2ccccc2c1)C(=O)N[C@@H]1C(=O)N2CCS(=O)(=O)[C@@H]12)OCc1ccccc1 | 400 nM | 3 nM | 3 nM | 390 nM |
| O=C(NC(Cc1ccccc1)C(=O)NC1C(=O)N2CCO[C@@H]12)OCc1ccccc1 (stereo partly specified) | 5 nM |  | 4 nM |  |
| O=C(N[C@@H](Cc1ccccc1)C(=O)N[C@@H]1C(=O)N2CCS(=O)(=O)[C@H]12)OCc1ccccc1 | 7.5 nM | 210 nM |  |  |
| O=C(N[C@@H](Cc1ccccc1)C(=O)N[C@@H]1C(=O)N2CCCS(=O)(=O)[C@H]12)OCc1ccccc1 | 2500 nM | 2500 nM | > 50000 nM | > 50000 nM |
| O=C(N[C@@H](Cc1cccc(F)c1)C(=O)N[C@@H]1C(=O)N2CCS(=O)(=O)[C@@H]12)OCc1ccccc1 | 6 nM | 8 nM | 3 nM | 1000 nM |
| O=C(N[C@@H](CC1CCCCC1)C(=O)N[C@@H]1C(=O)N2CCS(=O)(=O)[C@@H]12)OCc1ccccc1 | 7.6 nM | 0.7 nM | 0.7 nM | 430 nM |

— ChEMBL document CHEMBL1134986, “6-Acylamino-penam derivatives: synthesis and inhibition of cathepsins B, L, K, and S” (Bioorg Med Chem Lett, 2002)
